From patent US12110276B2 (Genentech, Inc., priority 2021, dated 2024)
pIC50: −log10 of the molar value.

Key:
TEAD1 = TEAD1 (Homo sapiens (Human), UniProt P28347); test: TR-FRET lipid pocket probe competition assay (Lipid HTRF), TEAD1; type: binding; settings: 4 hours pre-incubation; read-out: Lipid HTRF TEAD1 IC50;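 also: His-tagged TEAD1 with biotinylated probe, detected via Europium anti-His and XL665 streptavidin, probe displacement lowers TR-FRET signal, IC50 from four-parameter nonlinear fit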
TEAD3 = TEAD3 (Homo sapiens (Human), UniProt Q99594); test: TR-FRET lipid pocket probe competition assay (Lipid HTRF), TEAD3; type: binding; settings: 4 hours pre-incubation; read-out: Lipid HTRF TEAD3 IC50
TEAD4 = TEAD4 (Homo sapiens (Human), UniProt Q15561); test: TR-FRET lipid pocket probe competition assay (Lipid HTRF), TEAD4; type: binding; settings: 4 hours pre-incubation; read-out: Lipid HTRF TEAD4 IC50;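 also: His-tagged TEAD4 with biotinylated lipid-pocket probe, read by Europium anti-His and XL665 streptavidin, where probe displacement lowers the TR-FRET signal, IC50 from a four-parameter fit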
TEAD2 = TEAD2 (Homo sapiens (Human), UniProt Q15562);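 also: TR-FRET competition assay with His-tagged TEAD protein and a biotinylated lipid pocket probe, compound pre-incubated 30 min or 4 h at room temperature, displacement lowers signal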
Sequence of TEAD2 (Q15562 whole entry, species assumed): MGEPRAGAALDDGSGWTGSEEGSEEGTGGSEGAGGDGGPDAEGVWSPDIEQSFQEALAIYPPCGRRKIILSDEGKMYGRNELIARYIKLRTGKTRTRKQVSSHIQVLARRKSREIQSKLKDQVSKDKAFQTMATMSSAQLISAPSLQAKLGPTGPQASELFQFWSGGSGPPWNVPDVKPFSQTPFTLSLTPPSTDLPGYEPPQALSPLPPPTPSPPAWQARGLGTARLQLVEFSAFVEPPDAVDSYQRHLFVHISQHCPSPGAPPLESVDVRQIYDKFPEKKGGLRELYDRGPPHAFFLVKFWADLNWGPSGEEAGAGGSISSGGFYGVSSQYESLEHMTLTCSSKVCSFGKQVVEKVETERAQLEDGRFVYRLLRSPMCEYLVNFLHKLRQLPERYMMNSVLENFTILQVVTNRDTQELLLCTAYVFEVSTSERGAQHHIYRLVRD

Sequence of TEAD1 (P28347 whole entry, species assumed): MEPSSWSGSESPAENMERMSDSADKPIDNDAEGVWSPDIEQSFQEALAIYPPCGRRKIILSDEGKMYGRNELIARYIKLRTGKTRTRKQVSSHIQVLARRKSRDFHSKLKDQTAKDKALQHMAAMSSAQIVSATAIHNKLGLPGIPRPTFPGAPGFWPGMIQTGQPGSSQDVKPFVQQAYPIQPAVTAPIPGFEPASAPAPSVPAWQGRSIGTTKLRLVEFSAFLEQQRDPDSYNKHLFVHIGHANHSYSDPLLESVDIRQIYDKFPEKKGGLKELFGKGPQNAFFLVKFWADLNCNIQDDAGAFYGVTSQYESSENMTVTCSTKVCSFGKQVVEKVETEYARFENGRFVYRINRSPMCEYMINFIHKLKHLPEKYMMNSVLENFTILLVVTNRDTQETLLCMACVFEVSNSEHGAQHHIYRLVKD
Sequence of TEAD3 (Q99594 whole entry, species assumed): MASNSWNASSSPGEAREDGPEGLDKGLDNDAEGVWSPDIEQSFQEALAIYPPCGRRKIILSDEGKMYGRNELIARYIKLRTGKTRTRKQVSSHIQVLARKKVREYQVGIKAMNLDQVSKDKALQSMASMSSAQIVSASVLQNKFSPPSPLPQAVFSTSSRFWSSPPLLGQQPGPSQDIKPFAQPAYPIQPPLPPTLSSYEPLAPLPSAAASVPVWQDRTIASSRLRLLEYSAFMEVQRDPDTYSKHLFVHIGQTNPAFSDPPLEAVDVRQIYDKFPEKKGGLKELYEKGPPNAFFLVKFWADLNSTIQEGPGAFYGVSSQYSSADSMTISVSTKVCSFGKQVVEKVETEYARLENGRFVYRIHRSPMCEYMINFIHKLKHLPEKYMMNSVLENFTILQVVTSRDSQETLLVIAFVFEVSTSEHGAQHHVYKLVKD
Sequence of TEAD4 (Q15561 whole entry, species assumed): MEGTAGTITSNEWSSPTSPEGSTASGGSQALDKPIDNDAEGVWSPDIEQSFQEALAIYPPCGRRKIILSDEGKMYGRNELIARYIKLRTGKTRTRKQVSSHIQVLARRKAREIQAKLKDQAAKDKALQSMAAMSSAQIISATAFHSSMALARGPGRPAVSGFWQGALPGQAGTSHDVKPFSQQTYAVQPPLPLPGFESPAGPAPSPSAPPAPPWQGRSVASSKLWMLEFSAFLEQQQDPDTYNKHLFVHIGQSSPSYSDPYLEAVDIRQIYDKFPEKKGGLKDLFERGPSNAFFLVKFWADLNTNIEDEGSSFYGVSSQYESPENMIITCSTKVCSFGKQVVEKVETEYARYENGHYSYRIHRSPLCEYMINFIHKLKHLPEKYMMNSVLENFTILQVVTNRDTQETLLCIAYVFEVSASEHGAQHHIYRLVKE

Row | SMILES | pIC50 (TEAD1) | pIC50 (TEAD3) | pIC50 (TEAD4) | pIC50 (TEAD2)
1 | C=CC(=O)NCc1nn(-c2ccc(OC(F)(F)F)cc2)c2nccc(N3CC(C#N)C3)c12 [Compound 52, N-((4-(3-Cyanoazetidin-1-yl)-1-(4-(trifluoromethoxy)phenyl)-1H-pyrazolo[3,4-b]pyridin-3-yl)methyl)acrylamide] | 7.85 | 5.46 | 8.47 | 7.35
2 | O=C(/C=C\Cl)NCc1nn(-c2ccc(OC(F)(F)F)cc2)c2nccc([C@H](O)CO)c12 [Compound 53, (S,Z)-3-chloro-N-((4-(1,2-dihydroxyethyl)-1-(4-(trifluoromethoxy)phenyl)-1H-pyrazolo[3,4-b]pyridin-3-yl)methyl)acrylamide] | 7.35 | 4.30 | 8.46 | 7.44
3 | C=CC(=O)NCc1nn(-c2ccc(OC(F)(F)F)cc2)c2nccc(CN3CC(O)C3)c12 [Compound 54, N-((4-((3-Hydroxyazetidin-1-yl)methyl)-1-(4-(trifluoromethoxy)phenyl)-1H-pyrazolo[3,4-b]pyridin-3-yl)methyl)acrylamide] | 6.31 | 5.00 | 6.07 | 6.14
4 | C=CC(=O)N(C)Cc1nn(-c2ccc(OC(F)(F)F)cc2)c2nccc(CO)c12 [Compound 55, N-((4-(Hydroxymethyl)-1-(4-(trifluoromethoxy)phenyl)-1H-pyrazolo[3,4-b]pyridin-3-yl)methyl)-N-methylacrylamide] | 7.77 | 6.80 | 7.92 | 6.92
5 | C=CC(=O)NCc1nn(-c2ccc(OC(F)(F)F)cc2)c2nccc([C@H]3C[C@H](O)C3)c12 [Compound 56, N-((4-(trans-3-hydroxycyclobutyl)-1-(4-(trifluoromethoxy)phenyl)-1H-pyrazolo[3,4-b]pyridin-3-yl)methyl)acrylamide] | 7.41 | 4.30 | 7.96 | 7.07
6 | C=C(F)C(=O)N1CC(c2nn(-c3ccc(OC(F)(F)F)cc3)c3nccc(N4CC(F)(C(N)=O)C4)c23)C1 [Compound 57, 3-Fluoro-1-(3-(1-(2-fluoroacryloyl)azetidin-3-yl)-1-(4-(trifluoromethoxy)phenyl)-1H-pyrazolo[3,4-b]pyridin-4-yl)azetidine-3-carboxamide] | 7.44 | 6.46 | 8.29 | 7.43
7 | C=C(F)C(=O)N1CC(c2nn(-c3ccc(OC(F)(F)F)cc3)c3nccc(N4CC([C@@H](O)CO)C4)c23)C1 [Compound 58, (R)-1-(3-(4-(3-(1,2-Dihydroxyethyl)azetidin-1-yl)-1-(4-(trifluoromethoxy)phenyl)-1H-pyrazolo[3,4-b]pyridin-3-yl)azetidin-1-yl)-2-fluoroprop-2-en-1-one] | 7.42 | 4.30 | 8.02 | 7.15
8 | C=CC(=O)NCc1nn(-c2ccc(OC(F)(F)F)cc2)c2nccc([C@@H](C)O)c12 [Compound 62, (R)-N-((4-(1-Hydroxyethyl)-1-(4-(trifluoromethoxy)phenyl)-1H-pyrazolo[3,4-b]pyridin-3-yl)methyl)acrylamide] | 7.24 | 6.07 | 7.89 | 7.15
9 | C=CC(=O)NCc1nn(-c2ccc(OC(F)(F)F)cc2)c2nccc([C@H](C)O)c12 [Compound 63, (S)-N-((4-(1-hydroxyethyl)-1-(4-(trifluoromethoxy)phenyl)-1H-pyrazolo[3,4-b]pyridin-3-yl)methyl)acrylamide] | 6.87 | 4.98 | 7.11 | 6.91
10 | C=C(F)C(=O)N1CC(c2nn(-c3ccc(OC(F)(F)F)cc3)c3nccc(-n4ccnc4)c23)C1 [Compound 64, 1-(3-(4-(1H-Imidazol-1-yl)-1-(4-(trifluoromethoxy)phenyl)-1H-pyrazolo[3,4-b]pyridin-3-yl)azetidin-1-yl)-2-fluoroprop-2-en-1-one] | 7.64 | 5.89 | 7.68 | 6.77
11 | C[C@@H](O)/C=C/C(=O)N1CC(c2nn(-c3ccc(OC(F)(F)F)cc3)c3nccc(CO)c23)C1 [Compound 66, (R,E)-4-Hydroxy-1-(3-(4-(hydroxymethyl)-1-(4-(trifluoromethoxy)phenyl)-1H-pyrazolo[3,4-b]pyridin-3-yl)azetidin-1-yl)pent-2-en-1-one] | 7.36 | 6.47 | 7.48 | 6.74
12 | C=CC(=O)NCc1nn(-c2ccc(OC(F)(F)F)cc2)c2nccc(O[C@H]3C[C@H](O)C3)c12 [Compound 67, N-((4-(trans-3-Hydroxycyclobutoxy)-1-(4-(trifluoromethoxy)phenyl)-1H-pyrazolo[3,4-b]pyridin-3-yl)methyl)acrylamide] | 7.00 | 4.30 | 7.51 | 6.44
13 | C=C(F)C(=O)NCc1nn(-c2ccc(OC(F)(F)F)cc2)c2nccc(CO)c12 [Compound 68, 2-Fluoro-N-((4-(hydroxymethyl)-1-(4-(trifluoromethoxy)phenyl)-1H-pyrazolo[3,4-b]pyridin-3-yl)methyl)acrylamide] | 7.15 | 6.01 | 6.85 | 6.26
14 | O=C(/C=C/CO)N1CC(c2nn(-c3ccc(OC(F)(F)F)cc3)c3nccc(N4CC(O)C4)c23)C1 [Compound 70, (E)-4-Hydroxy-1-(3-(4-(3-hydroxyazetidin-1-yl)-1-(4-(trifluoromethoxy)phenyl)-1H-pyrazolo[3,4-b]pyridin-3-yl)azetidin-1-yl)but-2-en-1-one] | 7.77 | 6.85 | 8.44 | 7.43
15 | CC#CC(=O)N1CC(c2nn(-c3ccc(OC(F)(F)F)cc3)c3nccc([C@@H](O)CO)c23)C1 [Compound 71, (R)-1-(3-(4-(1,2-dihydroxyethyl)-1-(4-(trifluoromethoxy)phenyl)-1H-pyrazolo[3,4-b]pyridin-3-yl)azetidin-1-yl)but-2-yn-1-one] | 7.49 | 7.37 | 7.80 | 8.28
16 | C=CC(=O)NCc1nn(-c2ccc(OC(F)(F)F)cc2)c2nccc(N3CC(C)(O)C3)c12 [Compound 74, N-((4-(3-hydroxy-3-methylazetidin-1-yl)-1-(4-(trifluoromethoxy)phenyl)-1H-pyrazolo[3,4-b]pyridin-3-yl)methyl)acrylamide] | 7.49 | 5.39 | 8.32 | 6.85
17 | C=C(F)C(=O)N1CC(c2nn(-c3ccc(OC(F)(F)F)cc3)c3nccc(N4CC(O)(CO)C4)c23)C1 [Compound 75, 2-Fluoro-1-(3-(4-(3-hydroxy-3-(hydroxymethyl)azetidin-1-yl)-1-(4-(trifluoromethoxy)phenyl)-1H-pyrazolo[3,4-b]pyridin-3-yl)azetidin-1-yl)prop-2-en-1-one] | 7.35 | 5.96 | 8.28 | 7.72
18 | C=C(F)C(=O)N1CC(c2nn(-c3ccc(OC(F)(F)F)cc3)c3ccnc(N4CC(O)C4)c23)C1 [Compound 78, 2-fluoro-1-(3-(4-(3-hydroxyazetidin-1-yl)-1-(4-(trifluoromethoxy)phenyl)-1H-pyrazolo[4,3-c]pyridin-3-yl)azetidin-1-yl)prop-2-en-1-one] | 6.74 | 4.89 | 6.82 | 5.55
19 | N#Cc1ccnc2c1c(C1CN(C(=O)/C=C/CO)C1)nn2-c1ccc(OC(F)(F)F)cc1 [Compound 79] | 7.72 | 7.70 | 8.17 | 7.22
20 | C=C(F)C(=O)N1CC(c2nn(-c3ccc(OC(F)(F)F)cc3)c3nccc(C#N)c23)C1 [Compound 80, 3-(1-(2-fluoroacryloyl)azetidin-3-yl)-1-(4-(trifluoromethoxy)phenyl)-1H-pyrazolo[3,4-b]pyridine-4-carbonitrile] | 7.74 | 7.54 | 7.80 | 7.17
21 | C=C(F)C(=O)N1CC(c2nn(-c3ccc(OC(F)(F)F)cc3)c3nccc(N4CC(O)C4)c23)C1 [Compound 81, 2-Fluoro-1-(3-(4-(3-hydroxyazetidin-1-yl)-1-(4-(trifluoromethoxy)phenyl)-1H-pyrazolo[3,4-b]pyridin-3-yl)azetidin-1-yl)prop-2-en-1-one] | 7.49 | 6.62 | 7.96 | 7.62
22 | C=C(F)C(=O)N1CC(c2nn(-c3ccc(OC(F)(F)F)cc3)c3nccc(N4CC[C@H](O)C4=O)c23)C1 [Compound 82, (S)-1-(3-(1-(2-fluoroacryloyl)azetidin-3-yl)-1-(4-(trifluoromethoxy)phenyl)-1H-pyrazolo[3,4-b]pyridin-4-yl)-3-hydroxypyrrolidin-2-one] | 7.51 | 6.57 | 8.32 | 6.41
23 | C=CC(=O)NCc1nn(-c2ccc(OC(F)(F)F)cc2)c2nccc(N3CC(F)C3)c12 [Compound 84, N-((4-(3-Fluoroazetidin-1-yl)-1-(4-(trifluoromethoxy)phenyl)-1H-pyrazolo[3,4-b]pyridin-3-yl)methyl)acrylamide] | 7.64 | 4.30 | 8.20 | 7.05
24 | C=CC(=O)NCc1nn(-c2ccc(OC(F)(F)F)cc2)c2nccc(N[C@H]3C[C@H](O)C3)c12 [Compound 85, N-((4-((3-hydroxycyclobutyl)amino)-1-(4-(trifluoromethoxy)phenyl)-1H-pyrazolo[3,4-b]pyridin-3-yl)methyl)acrylamide] | 6.85 | 4.82 | 6.77 | 6.32
25 | C=CC(=O)NCc1nn(-c2ccc(S(F)(F)(F)(F)F)cc2)c2nccc(CO)c12 [Compound 87, N-((4-(Hydroxymethyl)-1-(4-(pentafluoro-λ^6-sulfanyl)phenyl)-1H-pyrazolo[3,4-b]pyridin-3-yl)methyl)acrylamide] | 7.64 | 6.28 | 7.48 | 6.72
